ChEMBL document CHEMBL3885881, “DrugMatrix”

Species on record: Rattus norvegicus
Assay: DrugMatrix - Regimen: Daily Repeat
Format: toxicity, organism-based, Sprague-Dawley
Set-up: regimen Daily Repeat, gender Male, age 6-8 weeks
Settings: in vivo, po, route oral GAVAGE, vehicle .5 % CMC; for ABSOLUTE BASOPHIL / ABSOLUTE EOSINOPHIL / ABSOLUTE LYMPHOCYTE / ABSOLUTE MONOCYTE / ABSOLUTE SEGMENTED NEUTROPHIL / BASOPHIL / EOSINOPHIL / ERYTHROCYTE COUNT / HEMATOCRIT / HEMOGLOBIN / LEUKOCYTE COUNT / LYMPHOCYTE / MEAN CORPUSCULAR HEMOGLOBIN / MEAN CORPUSCULAR HEMOGLOBIN CONCENTRATION / MEAN CORPUSCULAR VOLUME / MONOCYTE / NEUTROPHIL / NUCLEATED RED BLOOD CELLS / PLATELET COUNT: tissue Blood; for ALANINE AMINOTRANSFERASE / ALBUMIN / ALKALINE PHOSPHATASE / ASPARTATE AMINOTRANSFERASE / BLOOD UREA NITROGEN / CARBON DIOXIDE / CHLORIDE / CHOLESTEROL / CREATINE PHOSPHOKINASE / CREATININE / GLUCOSE / LACTATE DEHYDROGENASE / LIPASE / PHOSPHORUS / POTASSIUM / SODIUM / TOTAL BILIRUBIN / TOTAL PROTEIN / URIC ACID: tissue Plasma
[1] = 17 mg/kg, 120 h, dose level Low, time 5 day
[2] = 85 mg/kg, 72 h, dose level High, time 3 day
[3] = 85 mg/kg, 120 h, dose level High, time 5 day

Which results are given for `CN1CCN(CCCN2c3ccccc3Sc3ccc(Cl)cc32)CC1` [PROCHLORPERAZINE]?
ABSOLUTE BASOPHIL [1]: 0 CELLS/uL; ABSOLUTE EOSINOPHIL [1]: 40 CELLS/uL; ABSOLUTE LYMPHOCYTE [1]: 12867.33 CELLS/uL; ABSOLUTE MONOCYTE [1]: 40 CELLS/uL; ABSOLUTE SEGMENTED NEUTROPHIL [1]: 986 CELLS/uL; BASOPHIL [1]: 0%; EOSINOPHIL [1]: 0.33%; ERYTHROCYTE COUNT [1]: 5.56 x10E6/uL; HEMATOCRIT [1]: 36.13%; HEMOGLOBIN [1]: 14.37 G/DL; LEUKOCYTE COUNT [1]: 13.93 x10E3/uL; LYMPHOCYTE [1]: 92.33%; MEAN CORPUSCULAR HEMOGLOBIN [1]: 25.87 pg; MEAN CORPUSCULAR HEMOGLOBIN CONCENTRATION [1]: 39.77 G/DL; MEAN CORPUSCULAR VOLUME [1]: 65.13 fL; MONOCYTE [1]: 0.33%; NEUTROPHIL [1]: 7%; NUCLEATED RED BLOOD CELLS [1]: 0 /100WBC; PLATELET COUNT [1]: 1289.67 x10E3/uL; ALANINE AMINOTRANSFERASE [1]: 45.33 u/L; ALBUMIN [1]: 4.27 G/DL; ALKALINE PHOSPHATASE [1]: 464.33 u/L; ASPARTATE AMINOTRANSFERASE [1]: 85 u/L; BLOOD UREA NITROGEN [1]: 15.33 mg/dL; CARBON DIOXIDE [1]: 27.33 mmol/L; CHLORIDE [1]: 100.67 MEQ/L; CHOLESTEROL [1]: 75.67 mg/dL; CREATINE PHOSPHOKINASE [1]: 372 u/L; CREATININE [1]: 0.12 mg/dL; GLUCOSE [1]: 141.67 mg/dL; LACTATE DEHYDROGENASE [1]: 401 u/L; LIPASE [1]: 9 u/L; PHOSPHORUS [1]: 12.43 mg/dL; POTASSIUM [1]: 6.4 MEQ/L; SODIUM [1]: 143.33 MEQ/L; TOTAL BILIRUBIN [1]: 0.17 mg/dL; TOTAL PROTEIN [1]: 6.1 G/DL; URIC ACID [1]: 1.33 mg/dL; ABSOLUTE BASOPHIL [2]: 0 CELLS/uL; ABSOLUTE EOSINOPHIL [2]: 81.33 CELLS/uL; ABSOLUTE LYMPHOCYTE [2]: 10099 CELLS/uL; ABSOLUTE MONOCYTE [2]: 0 CELLS/uL; ABSOLUTE SEGMENTED NEUTROPHIL [2]: 453 CELLS/uL; BASOPHIL [2]: 0%; EOSINOPHIL [2]: 0.67%; ERYTHROCYTE COUNT [2]: 6.34 x10E6/uL; HEMATOCRIT [2]: 40.77%; HEMOGLOBIN [2]: 16.03 G/DL; LEUKOCYTE COUNT [2]: 10.63 x10E3/uL; LYMPHOCYTE [2]: 95.33%; MEAN CORPUSCULAR HEMOGLOBIN [2]: 25.3 pg; MEAN CORPUSCULAR HEMOGLOBIN CONCENTRATION [2]: 39.37 G/DL; MEAN CORPUSCULAR VOLUME [2]: 64.3 fL; MONOCYTE [2]: 0%; NEUTROPHIL [2]: 4%; NUCLEATED RED BLOOD CELLS [2]: 1 /100WBC; PLATELET COUNT [2]: 1132 x10E3/uL; ALANINE AMINOTRANSFERASE [2]: 31.33 u/L; ALBUMIN [2]: 4.87 G/DL; ALKALINE PHOSPHATASE [2]: 290 u/L; ASPARTATE AMINOTRANSFERASE [2]: 67.33 u/L; BLOOD UREA NITROGEN [2]: 24 mg/dL; CARBON DIOXIDE [2]: 22.67 mmol/L; CHLORIDE [2]: 108 MEQ/L; CHOLESTEROL [2]: 89 mg/dL; CREATINE PHOSPHOKINASE [2]: 161.33 u/L; CREATININE [2]: 0.2 mg/dL; GLUCOSE [2]: 145.67 mg/dL; LACTATE DEHYDROGENASE [2]: 143.33 u/L; LIPASE [2]: 8 u/L; PHOSPHORUS [2]: 11.93 mg/dL; POTASSIUM [2]: 6.09 MEQ/L; SODIUM [2]: 150.37 MEQ/L; TOTAL BILIRUBIN [2]: 0.2 mg/dL; TOTAL PROTEIN [2]: 7.03 G/DL; URIC ACID [2]: 2.53 mg/dL; ABSOLUTE BASOPHIL [3]: 0 CELLS/uL; ABSOLUTE EOSINOPHIL [3]: 0 CELLS/uL; ABSOLUTE LYMPHOCYTE [3]: 10951.33 CELLS/uL; ABSOLUTE MONOCYTE [3]: 241 CELLS/uL; ABSOLUTE SEGMENTED NEUTROPHIL [3]: 641 CELLS/uL; BASOPHIL [3]: 0%; EOSINOPHIL [3]: 0%; ERYTHROCYTE COUNT [3]: 6.41 x10E6/uL; HEMATOCRIT [3]: 38.7%; HEMOGLOBIN [3]: 15.23 G/DL; LEUKOCYTE COUNT [3]: 11.83 x10E3/uL; LYMPHOCYTE [3]: 92.67%; MEAN CORPUSCULAR HEMOGLOBIN [3]: 23.73 pg; MEAN CORPUSCULAR HEMOGLOBIN CONCENTRATION [3]: 39.33 G/DL; MEAN CORPUSCULAR VOLUME [3]: 60.37 fL; MONOCYTE [3]: 2%; NEUTROPHIL [3]: 5.33%; NUCLEATED RED BLOOD CELLS [3]: 0 /100WBC; PLATELET COUNT [3]: 1133 x10E3/uL; ALANINE AMINOTRANSFERASE [3]: 46.33 u/L; ALBUMIN [3]: 4.37 G/DL; ALKALINE PHOSPHATASE [3]: 354.33 u/L; ASPARTATE AMINOTRANSFERASE [3]: 99.67 u/L; BLOOD UREA NITROGEN [3]: 21.33 mg/dL; CARBON DIOXIDE [3]: 24.67 mmol/L; CHLORIDE [3]: 105.67 MEQ/L; CHOLESTEROL [3]: 84.67 mg/dL; CREATINE PHOSPHOKINASE [3]: 760.33 u/L; CREATININE [3]: 0.23 mg/dL; GLUCOSE [3]: 146 mg/dL; LACTATE DEHYDROGENASE [3]: 421 u/L; LIPASE [3]: 9 u/L; PHOSPHORUS [3]: 11.03 mg/dL; POTASSIUM [3]: 6.4 MEQ/L; SODIUM [3]: 147.97 MEQ/L; TOTAL BILIRUBIN [3]: 0.27 mg/dL; TOTAL PROTEIN [3]: 6.17 G/DL; URIC ACID [3]: 1.8 mg/dL
